2 molecules from patent publication US8409619B2, “Oral drug delivery system for azole, moxifloxacin and rifampicin” (priority 2008, dated 2013) can be followed below.

Assay in data set [1]: not given
This is another data set of the same source.

In another data set the test system is M. tuberculosis H37Rv. Kind of data set: Experimental infection and chemotherapy (murine tuberculosis, cfu in lungs and spleen). In kind it is in vivo. As to conditions: for Log10 cfu Lung / Log10 cfu Spleen: mice infected i.v. with M. tuberculosis H37Rv, eight weeks oral chemotherapy, sacrificed day 62, mean ± S.D.; for reduction of bacterial burden in organs / cfu reduction from lungs and spleen as compared to untreated controls: mice, eight weeks of chemotherapy; for cfu reduction from lungs and spleen as compared to untreated controls: free form daily/twice daily or encapsulated form weekly.

Read-outs that look alike come from different tables or passages of the source.

On to `Clc1ccc(COC(Cn2ccnc2)c2ccc(Cl)cc2Cl)cc1` (stereo not drawn) [Free econazole, econazole], for which the “time up to which drug was detected in organs” value (mouse, in vivo, po) is reported as “up to 12 h”. The “time up to which drug was detectable in plasma” value in data set [1] (mouse, in vivo, po) was 3 to 4 h. In the data set with M. tuberculosis H37Rv, the “Log10 cfu Lung” value was 4.87 ± 0.040 Log10 cfu; the “Log10 cfu Spleen” value came to 4.89 ± 0.020 Log10 cfu; the “reduction of bacterial burden in organs” value is “about 2 log cfu”; the “cfu reduction from lungs and spleen as compared to untreated controls” value is on record as “approximately 2 Log10 cfu”.
Turning to `COc1c(N2C[C@@H]3CCCN[C@@H]3C2)c(F)cc2c(=O)c(C(=O)O)cn(C3CC3)c12` [Free moxifloxacin, moxifloxacin], the “time up to which drug was detected in organs” value (oral free drug, mice) is on record as no more than 24 h. For the same molecule, the “time up to which drug was detectable in plasma” value in data set [1] (oral free drug, mice) is reported as “up to 12 h”. Besides, in the data set with M. tuberculosis H37Rv, the “Log10 cfu Lung” value is 4.96 ± 0.013 Log10 cfu; the “Log10 cfu Spleen” value was 4.96 ± 0.013 Log10 cfu; the “reduction of bacterial burden in organs” value is reported as “about 2 log cfu”; the “cfu reduction from lungs and spleen as compared to untreated controls” value is recorded as “approximately 2 Log10 cfu”.
